Laboratory results published in patent publication US20240082125A1, “USE OF A SHORT CHAIN FATTY ACID AS ANTIDANDRUFF AGENT” (NANYANG TECHNOLOGICAL UNIVERSITY, priority 2020, published 2024).
Where “and” joins values, the source holds several entries; their conditions need not be identical. Equal entries are not always repeated.

Legend:
[1] = tested on: M. restricta ATCC MYA-4611; test: M. restricta cell viability by ATP estimation (BacTiterGlo); assay type: cell-based, Malassezia restricta; conditions: 50 mM, ATP in lysate of 24 hours grown cells, replicates #1-#3
Procedure: M. restricta ATCC MYA-4611, S. epidermidis ATCC 12228 and C. acnes ATCC 6919 were purchased from ATCC. M. restricta were routinely cultured in Modified Dixon (MD) medium (pH 6), composed of 36 g of Malt extract (Sigma 70167), 20 g of Dessicated Oxbile (Sigma 70168), 6 g of Bacto™ Peptone (BD 211677), 1% (v/v) Tween 40 (Sigma P1504), 0.2% (v/v) Oleic Acid (Fluka 75096), and 0.2% (v/v) Glycerol (Promega H5433) in 1 liter of dH2O. C. acnes and S. epidermidis were cultured in modified brain heart infusion (MBHI) medium (pH 7), containing 37 g of BHI base (Accumedia 7116B), 0.4% (v/v) of Tween-40 (Sigma P1504), 0.2% (v/v) of Oleic acid (Fluka 75096), and 0.2% (v/v) of Glycerol (Promega H5433) in 1 liter of dH2O. […]
M. restricta cells stored as glycerol stocks (30% glycerol in MD medium) were revived by plating on MD agar plates and incubated for 2-3 days at 33° C. […] Growth was monitored by measuring the cell density with SYTO 9 or by estimating the ATP concentration (see below) for up to 24 hours or 96 hours. […] Bacterial growth was measured by plating the serially diluted cultures on Brain Heart Infusion agar plates at different time points and colonies were counted after 72 hours for C. acnes and 24 hours for S. epidermidis.
Cellular ATP was measured using the BacTiterGlo Microbial cell viability (Promega) kit following manufacturers protocol. […]

C. acnes ATCC 6919 = test: C. acnes growth assay, colony forming units; assay type: cell-based, Cutibacterium acnes; conditions: for C. acnes (log10 CFUs/ml): 50 mM, after 72 hours, replicates #1-#3; for growth of C. acnes: 30 mM, MBHI medium pH 7, anaerobic, FIG. 2
Procedure: (§1) M. restricta ATCC MYA-4611, S. epidermidis ATCC 12228, and C. acnes ATCC 6919 were purchased from ATCC. M. restricta was routinely cultured in modified Dixon (MD) medium (pH 6), composed of 36 g of Malt extract (Sigma 70167), 20 g of Dessicated Oxbile (Sigma 70168), 6 g of Bacto™ Peptone (BD 211677), 1% (v/v) Tween 40 (Sigma P1504), 0.2% (v/v) Oleic Acid (Fluka 75096), and 0.2% (v/v) Glycerol (Promega H5433) in 1 liter of dH2O. C. acnes and S. epidermidis were cultured in modified brain heart infusion (MBHI) medium (pH 7), containing 37 g of BHI base (Accumedia 7116B), 0.4% (v/v) of Tween-40 (Sigma P1504), 0.2% (v/v) of Oleic acid (Fluka 75096), and 0.2% (v/v) of Glycerol (Promega H5433) in 1 liter of dH2O. M. restricta and S. epidermidis were routinely grown under aerobic conditions, shaken at 200 rpm, and C. acnes was grown under anaerobic conditions. All organisms were grown at 33° C. Wherever required, media was supplemented with: sodium acetate (CH3COOH, Sigma Ref. 32319), sodium propionate ([…], Sigma Ref. P1880), sodium butyrate (CH3(CH2)2COOH, Sigma Ref. 303410), valeric acid (CH3(CH2)3COOH, Fluka Ref. 75054). For valeric acid, the pH in modified cell media was neutralized with NaOH (Sodium hydroxide, Sigma 283060).
(§2) M. restricta cells stored as glycerol stocks (30% glycerol in MD medium) were revived by plating on MD agar plates and incubated for 2-3 days at 33° C. A pre-culture was made from the lawn of cells grown on the agar plate. Cells from % of the plate was scrapped off, homogenized after suspending in 70 ml of MD medium in a 250 ml baffled erlenmeyer flask and incubated for 24 hours at 33° C. at 200 rpm. For experiments, 10^7 cell/ml was inoculated in fresh MD medium with or without the short chain fatty acids. Growth was monitored by measuring the cell density with SYTO 9 for up to 24 hours or 96 hours. C. acnes and S. epidermidis were inoculated into MBHI medium at starting cell density of OD600 0.05 and 0.25, respectively. Bacterial growth was measured by plating the serially diluted cultures on Brain Heart Infusion agar plates at different time points and colonies were counted after 72 hours for C. acnes and 24 hours for S. epidermidis.
(§3) Bacterial growth was quantified by plating the serially diluted cultures on Brain Heart Infusion agar plates at different time points and colonies were counted after 72 hours for C. acnes and 24 hours for Staphylococcus sp.
(§4) M. restricta ATCC MYA-4611, S. epidermidis ATCC 12228 and C. acnes ATCC 6919 were purchased from ATCC. M. restricta were routinely cultured in Modified Dixon (MD) medium (pH 6), composed of 36 g of Malt extract (Sigma 70167), 20 g of Dessicated Oxbile (Sigma 70168), 6 g of Bacto™ Peptone (BD 211677), 1% (v/v) Tween 40 (Sigma P1504), 0.2% (v/v) Oleic Acid (Fluka 75096), and 0.2% (v/v) Glycerol (Promega H5433) in 1 liter of dH2O. C. acnes and S. epidermidis were cultured in modified brain heart infusion (MBHI) medium (pH 7), containing 37 g of BHI base (Accumedia 7116B), 0.4% (v/v) of Tween-40 (Sigma P1504), 0.2% (v/v) of Oleic acid (Fluka 75096), and 0.2% (v/v) of Glycerol (Promega H5433) in 1 liter of dH2O. M. restricta and S. epidermidis were routinely grown under aerobic conditions, shaken at 200 rpm, and C. acnes was grown under anaerobic conditions. All organisms were grown at 33° C. Wherever required, media was supplemented with 50 mM of: sodium propionate ([…], Sigma Ref. P1880), sodium butyrate (CH3(CH2)2COOH, Sigma Ref. 303410), valeric acid (CH3(CH2)3COOH, Fluka Ref. 75054). For valeric acid, the pH in modified cell media was neutralized with NaOH (Sodium hydroxide, Sigma 283060).
(§5) M. restricta cells stored as glycerol stocks (30% glycerol in MD medium) were revived by plating on MD agar plates and incubated for 2-3 days at 33° C. A pre-culture was made from the lawn of cells grown on the agar plate.

[2] = tested on: S. epidermidis ATCC 12228; test: S. epidermidis growth assay, colony forming units; assay type: cell-based, Staphylococcus epidermidis; conditions: for S. epidermidis (log10 CFUs/ml): 50 mM, after 24 hours, replicates #1-#3; for growth of S. epidermidis: 30 mM, MBHI medium pH 7, aerobic, FIG. 3
Procedure: as §1, §2, §3, §4, §5

[3] = tested on: M. restricta ATCC MYA-4611; test: M. restricta growth assay, total cell numbers by SYTO9 fluorescence; assay type: cell-based, Malassezia restricta; conditions: for M. restricta (log10 total cell counts): 50 mM, after 72 hours, SYTO9, starting density 1×10^7 cells/ml, replicates #1-#3; for growth of Malassezia restricta: 30 mM, MD medium pH 6, FIG. 1
Procedure: as §1
M. restricta cells from 1 ml of the culture were harvested by centrifugation at 10,000×g for 5 minutes at room temperature. Cells were washed once, pelleted, and re-suspended in 0.9% NaCl solution. Equal volumes of the above cell suspension and SYTO 9 working stock (3 ul SYTO 9 component of the Live/Dead BacLight bacterial viability kit, ThermoFisher Scientific, L7012, diluted in 1 ml of 0.9% NaCl solution) were mixed well, incubated in dark for 10 minutes, and fluorescent intensity unit was measured in a Tecan microplate reader with excitation/emission wavelengths of 485/530 nm. A standard for correlation of fluorescence units and concentration was prepared using a fluorimeter and hemocytometer under a light microscope. This standard curve was used to calculate the total cell numbers.
as §2
M. restricta ATCC MYA-4611, S. epidermidis ATCC 12228 and C. acnes ATCC 6919 were purchased from ATCC. M. restricta were routinely cultured in Modified Dixon (MD) medium (pH 6), composed of 36 g of Malt extract (Sigma 70167), 20 g of Dessicated Oxbile (Sigma 70168), 6 g of Bacto™ Peptone (BD 211677), 1% (v/v) Tween 40 (Sigma P1504), 0.2% (v/v) Oleic Acid (Fluka 75096), and 0.2% (v/v) Glycerol (Promega H5433) in 1 liter of dH2O. C. acnes and S. epidermidis were cultured in modified brain heart infusion (MBHI) medium (pH 7), containing 37 g of BHI base (Accumedia 7116B), 0.4% (v/v) of Tween-40 (Sigma P1504), 0.2% (v/v) of Oleic acid (Fluka 75096), and 0.2% (v/v) of Glycerol (Promega H5433) in 1 liter of dH2O. M. restricta and S. epidermidis were routinely grown under aerobic conditions, shaken at 200 rpm, and C. acnes was grown under anaerobic conditions. All organisms were grown at 33° C.

Row | SMILES | M. restricta (Relative luminescence units) [1] | C. acnes (log10 CFUs/ml) (C. acnes ATCC 6919) | S. epidermidis (log10 CFUs/ml) [2] | M. restricta (log10 total cell counts) [3] | growth of Malassezia restricta [3] | growth of C. acnes (C. acnes ATCC 6919) | growth of S. epidermidis [2]
1 | CCC(=O)[O-].CCC(=O)[O-].[Zn+2] [Zn_Pro, zinc propionate] | 12500 Relative luminescence units and 11900 Relative luminescence units and 10300 Relative luminescence units | 0.00 log10 CFUs/ml | 5.00 log10 CFUs/ml and 5.05 log10 CFUs/ml and 0.00 log10 CFUs/ml |  |  |  | 
2 | CCCCCC(=O)O [Cpo, caproic acid] |  | 8.29 log10 CFUs/ml and 8.26 log10 CFUs/ml and 8.41 log10 CFUs/ml | 7.64 log10 CFUs/ml and 7.67 log10 CFUs/ml and 7.57 log10 CFUs/ml | 6.93 log10 total cell counts and 6.95 log10 total cell counts and 6.87 log10 total cell counts |  |  | 
3 | CCCC(=O)[O-].[Na+] [NaB, sodium butyrate] |  | 8.26 log10 CFUs/ml and 8.10 log10 CFUs/ml and 8.34 log10 CFUs/ml | 9.15 log10 CFUs/ml and 8.87 log10 CFUs/ml and 8.90 log10 CFUs/ml | 6.94 log10 total cell counts and 6.88 log10 total cell counts (2×) | completely inhibit | do not affect | do not affect
4 | CCCCCC(=O)OCC [EH_Cpo, ethyl caproate] |  | 9.94 log10 CFUs/ml and 8.47 log10 CFUs/ml and 8.00 log10 CFUs/ml | 5.55 log10 CFUs/ml and 5.54 log10 CFUs/ml and 5.66 log10 CFUs/ml | 6.80 log10 total cell counts and 6.69 log10 total cell counts and 6.74 log10 total cell counts |  |  | 
5 | CCCCC(=O)[O-].[Na+] [NaV, sodium valerate] |  | 8.90 log10 CFUs/ml and 8.03 log10 CFUs/ml and 8.00 log10 CFUs/ml | 8.90 log10 CFUs/ml and 9.29 log10 CFUs/ml and 9.08 log10 CFUs/ml | 6.86 log10 total cell counts and 6.92 log10 total cell counts and 6.93 log10 total cell counts | completely inhibit | do not affect | do not affect
6 | CCCCCCCC(=O)O [Cpy, caprylic acid] |  | 0.00 log10 CFUs/ml | 3.34 log10 CFUs/ml and 3.03 log10 CFUs/ml and 3.00 log10 CFUs/ml | 6.98 log10 total cell counts and 6.91 log10 total cell counts and 6.84 log10 total cell counts |  |  | 
7 | CC(=O)[O-].[Na+] [acetate, sodium acetate] |  |  |  |  | No effect |  | 
8 | CCCCCCCC(=O)OCC(O)CO (stereo not shown) [GM_Cpy, glyceryl mono caprylate] | 16700 Relative luminescence units and −1470 Relative luminescence units and −2030 Relative luminescence units | 0.00 log10 CFUs/ml | 0.00 log10 CFUs/ml |  |  |  | 
